Here are results for 39 molecules from article PMC6687188, “Novel lactate dehydrogenase inhibitors with in vivo efficacy against Cryptosporidium parvum” (PLoS Pathogens, 2019).

In data set [1] the target is T1, recombinant CpLDH protein (Cryptosporidium parvum, UniProt Q9GT92, F198L/K295E/R251K). The procedure:
The coding sequence of CpLDH was cloned from cDNA prepared from the AUCP-1 isolate of C. parvum, and the His-tagged CpLDH recombinant protein expressed in Escherichia coli, and purified in native form essentially as previously described. Briefly, cDNA was prepared from total RNA extracted from the AUCP-1 isolate of C. parvum, and the coding sequence of CpLDH (Genebank accession number AF274310.1) was PCR-amplified from the cDNA using the primer pair 5’-[…]-3’ (Forward, with the XhoI restriction site italicized and start codon in bold) and 5’-[…]-3’ (Reverse, with the BamHI site italicized and stop codon in bold). The PCR amplicon was cloned at the XhoI/BamHI site of the pET15b expression vector in-frame with the hexahistidine (His-tag) at the N-terminal and sequenced to confirm identity. The recombinant expression vector was transformed into protein expression E. coli BL21-CodonPlus-DE3-RIL (Stratagene). Transformed E. coli was cultured at 37°C in Luria broth medium (supplemented with 100 μg/ml ampicillin and 34 μg/ml chloramphenicol) to an A600 of 0.8 followed by addition of 1 mM isopropyl-β-D-thiogalactopyranoside to induce protein expression. The expression E. coli was harvested and lysed under native conditions by sonicating in lysis buffer (50 mM NaH2PO4, 300 mM NaCl, 10 mM Imidazole, pH 8.0) containing a 1x EDTA-free protease inhibitor cocktail, 600 units benzonase and 30 kU lysozyme (EMD Millipore). The lysate was clarified by centrifugation and the His-tagged recombinant protein purified under native conditions by nickel-affinity chromatography according to the manufacturer's instructions (Novagen). The wash buffer used contained 50 mM NaH2PO4, 300 mM NaCl and 20 mM Imidazole, pH 8.0, while the elution buffer was composed of 50 mM NaH2PO4, 300 mM NaCl, 250 mM Imidazole, pH 8.0. The eluate was dialyzed using a buffer containing 5 mM Hepes–KOH (pH 7.8) and 0.5 mM DTT. The purity of the recombinant protein was determined by SDS/PAGE, and the concentration measured using a Qubit 3.0 fluorometer (Life technologies). […] On the other hand, the catalytic activity of CpLDH recombinant protein for the oxidation of lactate to pyruvate was determined by measuring the change in optical density of a 100 μl reaction mixture containing 100 mM lactate, 1 mM NAD^+, 100 mM Tris, pH 9.2, with varying concentrations of CpLDH recombinant protein at 25°C. […] In all assays, reaction mixtures without recombinant CpLDH protein were included as negative controls. All assays were performed in triplicate and repeated at least thrice. The change in optical density was measured every 15 seconds for a total of 2 minutes using a Spectra Max 384 Plus plate reader (Molecular Devices) at a wave length of 340 nm.

Data set [2] has as its target T1, recombinant CpLDH protein. The source holds these as a separate data set.
Another data set concerns HCT-8 cells. Briefly: Compound cytotoxicity assay (WST-1 cell proliferation reagent). How it is done: A colorimetric assay using the cell proliferation reagent WST-1 (Roche, USA) for the quantification of cell viability was performed. […] When the cells were confluent, the old medium was replaced with fresh medium with or without varying concentrations of chemical compound. After 24 h of culture, 10 μl of the cell proliferation reagent WST-1, (for quantification of cell viability) was added to each well, mixed and the plates incubated for 1 h at 37 C with 5% CO2 in the dark. […] Three independent assays were performed and the dose–response curves of the means of triplicate assays were generated using GraphPad PRISM software to derive the half maximal inhibitory concentration (IC50) of compounds in HCT-8 cells.
Background: Tetrazolium dyes change colour on reduction, which living cells bring about.

Where two headings read alike, the source gives them in different places.

On to `NC(=O)C1=CN([C@@H]2O[C@H](COP(=O)(O)OP(=O)(O)OC[C@H]3O[C@@H](n4cnc5c(N)ncnc54)[C@H](O)[C@@H]3O)[C@@H](O)[C@H]2O)C=CC1` [NADH], for which the Km in data set [1] (pyruvate/NADH: reduction reaction pH 7.5, lactate/NAD+: oxidation reaction pH 9.2, 25°C) was found to be 734 µM. For the same molecule, the Vmax in data set [1] (pyruvate/NADH: reduction reaction, lactate/NAD+: oxidation reaction) came out at 6.29 nmol⁻¹ µg⁻¹ min⁻¹. Consider `CC1=C(CCC(=O)O)c2cc3nc(cc4[nH]c(cc4C)cc4[nH]c(cc1n2)cc4C)C(C)=C3CCC(=O)O` [NSC18298], for which the “MEAN CpLDH INHIBITION (%)” value in data set [2] was determined as 53.86%. The molecule also registered an IC50 in the data set on HCT-8 cells of 81.9 µM.

In the case of `O=C(O)[C@@H]1[C@H](C(=O)O)[C@]2(Cl)C(Cl)=C(Cl)[C@@]1(Cl)C2(Cl)Cl` [NSC22225], the “effect on catalytic activity of recombinant CpLDH (in words)” value in data set [2] is listed as “significantly (P < 0.05) inhibited”. In the data set with HCT-8 cells, this molecule had an IC50 of 96.8 µM. `O=c1oc2cc(O)ccc2c2oc3cc(O)ccc3c12` [NSC22842]: in data set [2], the “MEAN CpLDH INHIBITION (%)” value came to 3.48%. Besides, the IC50 with HCT-8 cells came to 83.5 µM.

Regarding `CC(=O)Nc1ccc(-c2nc3ccccc3s2)cc1` [NSC33006], in data set [2], the “MEAN CpLDH INHIBITION (%)” value stood at 13.74%. The molecule also returned an IC50 in the data set on HCT-8 cells of 87.3 µM.

Take `O=S(=O)([O-])c1cc(N=Nc2cc(S(=O)(=O)[O-])c3ccccc3c2O)ccc1/C=C/c1ccc(N=Nc2cc(S(=O)(=O)[O-])c3ccccc3c2O)cc1S(=O)(=O)[O-].[Na+].[Na+].[Na+].[Na+]` [NSC34931]: in data set [2], the “MEAN CpLDH INHIBITION (%)” value was determined as 43.74%. 71.1 µM corresponded to half-maximal inhibition in the data set with HCT-8 cells (IC50). Regarding `O=S(=O)(O)c1cc(N=[N+]([O-])c2cc(S(=O)(=O)O)c3ccccc3c2)cc2ccccc12` [NSC37031], the “effect on catalytic activity of recombinant CpLDH (in words)” value in data set [2] is “significantly (P < 0.05) inhibited”. For the same molecule, half-maximal inhibition in the data set with HCT-8 cells (IC50) was put at 333 µM.

As for `[Cl][Cd][Cl]` [NSC51148], in data set [2], the “MEAN CpLDH INHIBITION (%)” value is recorded as 64.58%. Further, the IC50 in the data set on HCT-8 cells stood at 39.6 µM. The like results for `N#CCCN(CCC#N)Cc1cc(O)c(CN(CCC#N)CCC#N)cc1O` [NSC70925] were, in that order, 68.17% and 142 µM. In the case of `Cc1cc2c(c3oc(C4(C)OC4C4OC4C)cc(=O)c13)C(=O)c1c(O)c(C3CC(C)(N(C)C)C(O)C(C)O3)cc(C3CC(N(C)C)C(O)C(C)O3)c1C2=O` (stereo not drawn) [NSC70929], the “MEAN CpLDH INHIBITION (%)” value in data set [2] was 13.50%. In the data set on HCT-8 cells, the IC50 is 181 µM. The like results for `Cc1ccc2c(sc(-c3ccc4c(c3)sc(-c3ccc(N(C)C)cc3)[n+]4C)[n+]2C)c1S(=O)(=O)[O-].[Cl-]` [NSC71948] were, in that order, 60.47% and 106 µM. The like results for `O=[N+]([O-])c1ccc2c(N=Nc3c(O)ccc4ccccc34)c(O)cc(S(=O)(=O)[O-])c2c1.[Na+]` [NSC73413] were, in that order, 54.98% and 220 µM. Turning to `Cc1cc(N(CCCl)CCCl)ccc1/C=N/NC(=O)Cc1cc(=O)oc2cc(O)ccc12` [NSC79688], the “MEAN CpLDH INHIBITION (%)” value in data set [2] stood at 40.15%. For the same molecule, in the data set with HCT-8 cells (read-out: CYTOTOXICITY IC50, HCT-8 cells, 24 h), the IC50 came to 145 µM. For `O=C(CC(=O)C(F)(F)F)c1csc2ccccc12` [NSC80396], the “MEAN CpLDH INHIBITION (%)” value in data set [2] is -8.51%. In the data set on HCT-8 cells, this molecule came in with an IC50 of 91.9 µM.

With `CCOC(C)C(C=NNC(N)=S)=NNC(N)=S` (stereo not drawn) [NSC82116], the “MEAN CpLDH INHIBITION (%)” value in data set [2] is recorded as 10.05%. The molecule also registered an IC50 in the data set with HCT-8 cells of 118 µM. The like results for `O=[N+]([O-])c1cccc2c(N=Nc3ccc4ccccc4c3O)c(O)cc(S(=O)(=O)O)c12.[Na+]` [NSC85561] were, in that order, 73.45% and 103 µM. The matching figures for `CCOC(=O)Cc1c(C)c2cc(C(=O)c3ccccc3)c(O)cc2oc1=O` [NSC115538]: 0.63% and 158 µM. The matching figures for `COc1ccc(/C=C/C(=O)Oc2cc(O)cc(O)c2)cc1` [NSC175296]: 0.00% and 156 µM. `O=C([CH-]C(=O)C(F)(F)F)c1ccccc1.O=C([CH-]C(=O)C(F)(F)F)c1ccccc1.O=C([CH-]C(=O)C(F)(F)F)c1ccccc1.O=C([CH-]C(=O)C(F)(F)F)c1ccccc1.[Eu+3].c1ccncc1` [NSC253995]: in data set [2], the “MEAN CpLDH INHIBITION (%)” value is reported as 25.71%. For the same molecule, the midpoint of inhibition with HCT-8 cells, the IC50, lay at 83 µM.

Take `CC(O)CCC(=O)c1ccoc1` (stereo not drawn) [NSC349438]: the “MEAN CpLDH INHIBITION (%)” value in data set [2] is on record as 13.12%. Besides, the IC50 with HCT-8 cells was 93.9 µM. With `O=Cc1cc([N+](=O)[O-])no1` [NSC626433], in data set [2], the “MEAN CpLDH INHIBITION (%)” value worked out at 48.62%. In the data set on HCT-8 cells, this molecule registered an IC50 of 265 µM.

Consider `O=S(=O)(O)c1cc(N=Nc2cc(S(=O)(=O)O)c3cccnc3c2O)ccc1/C=C/c1ccc(N=Nc2cc(S(=O)(=O)O)c3cccnc3c2O)cc1S(=O)(=O)O` [NSC638352], for which the “MEAN CpLDH INHIBITION (%)” value in data set [2] worked out at 43.74%. Moreover, in the data set with HCT-8 cells, half-maximal inhibition (IC50) required 116 µM.

With `O=C1/C(=C/c2ccccc2)CN(C(=O)/C=C/c2ccccc2)C/C1=C\c1ccccc1` [NSC638634], the “MEAN CpLDH INHIBITION (%)” value in data set [2] is 0.30%. For the same molecule, the IC50 with HCT-8 cells stood at 157 µM. The like results for `COC(=O)C1=C(C(=O)OC)SC2(S1)C(C(=O)OC)=C(C(=O)OC)Sc1c2ssc1=O` [NSC686349] were, in that order, 31.74% and 283 µM. On to `O=C(OCC12CC3CC(CC(C3)C1)C2)c1ccc(NCc2cc(O)ccc2O)cc1` [NSC689857], for which the “MEAN CpLDH INHIBITION (%)” value in data set [2] was -0.01%. The same measure, in the same setting: the value for `COc1ccc2nc3cc([N+](=O)[O-])ccc3c(NNc3ccccc3)c2c1` [NSC689872] was -7.48%; that for `O=[N+]([O-])c1cccc2nc3ccccc3c(NCCCNc3c4ccccc4nc4cccc([N+](=O)[O-])c34)c12` [NSC690634] was -61.23%; that for `CCOC(=O)c1ccc(-c2cc(C)no2)[nH]1` [NSC693053] was -6.53%.

In the case of `CCCCCCCCCCCCCCCC[N+](C)(C)Cc1ccc(F)cc1.[Cl-]` [NSC693172], in data set [2], the “MEAN CpLDH INHIBITION (%)” value is -0.60%. Take `C/C(=N\Nc1nc2ccccc2s1)c1ccncn1` [NSC693632]: the “MEAN CpLDH INHIBITION (%)” value in data set [2] turned out to be 0.06%. On the same count and under the same terms, to `CON(C)C(=O)C1CCCO1` (stereo not drawn) [NSC695218] belongs -28.71%; to `CN(C)CC1CCC/C(=C\c2ccc(OC(=O)/C=C/c3ccccc3)cc2)C1=O.Cl` (stereo not drawn) [NSC697443], -57.12%. On the same count and under the same terms, to `CC(=O)NC1C(OCc2ccccc2)OC(CO)C(O)C1OC(C)C(=O)NC(C(=O)NC(CCC(=O)NCCCCNc1c2ccccc2nc2cccc([N+](=O)[O-])c12)C(N)=O)C(C)C` (stereo not drawn) [NSC697468] belongs -5.22%; to `CC1=C(N2CC2)C(=O)C(CO)=C(N2CC2)C1=O` [NSC697726], -69.94%. Regarding `Cc1ccc(S(=O)(=O)c2ccc([N+](=O)[O-])o2)cc1` [NSC697923], the “MEAN CpLDH INHIBITION (%)” value in data set [2] (20 μM compound, 10 mM pyruvate, 1 mM NADH, values below 0 = augmenters) is -17.27%. As to `Cc1nnc(-n2c(O)cc(=O)n(-c3ccccc3)c2=S)nc1/C=C/c1ccc(N(C)C)cc1` [NSC698031], the “MEAN CpLDH INHIBITION (%)” value in data set [2] is -6.31%. Still for that read-out and setting: to `CCCCn1c2c(n(CCCC)c1=S)-c1c(n(CCCC)c(=S)n1CCCC)SSSS2` [NSC700582] belongs -83.75%; to `Cc1ccc(N=N/C(=N\NC(=O)c2ccc(C)cc2)c2ccc(N(CCC#N)CCC#N)cc2C)cc1` [NSC703550], -165.27%; to `CC(C)(C)N(Cc1ccc2c(c1)OCO2)C(=O)/C=C\[S+]([O-])c1ccccc1` (stereo not drawn) [NSC705330], -49.87%.

For orientation: Km means the substrate concentration at which the rate is half of its maximum. As usually defined, the IC50 is the concentration needed to halve the response being measured.
